This is an account of results in patent US20110014174A1, “Lysozyme, A Novel Vasodilator of Sepsis that can be inhibited by a Peroxidase and Hydroxyl Radical Scavengers” (UNIVERSITY OF MANITOBA, priority 2007, published 2011).

“Also recorded” adds a separate entry of the source. Read-outs that look alike come from different tables or passages of the source.

Test [1] deals with Lzm-S-induced carotid artery vasodilation. Description: Prevention of Lzm-S-induced vasodilation by pretreatment agents in the carotid artery ring preparation. Details: species or system canine. The settings on record: for blockade of Lzm-S-induced vasodilation: comparison of hydroxyl radical scavengers with peroxidase.
The subject of test [2] is phenylephrine contracted canine carotid artery ring preparation. Description: Contraction force and vasorelaxation in phenylephrine contracted canine carotid artery ring preparation.
Where [3] appears, read: pretreatment with the agent, human Lzm-S 6.7×10^−7 mol/L, phenylephrine contracted ring.

`Oc1ccc(O)cc1` [hydroquinone]: the “blockade of Lzm-S-induced vasodilation” value in test [1] amounted to 60%. Further, the “inhibition of Lzm-S-induced vasodilation (words)” value (“inhibition” for short) in test [1] (setting [3]) is on record as “inhibited the vasodilatory effect of lysozyme”; in test [1] (pretreatment with the agent, human Lzm-S 6.7×10^−7 mol/L, phenylephrine contracted ring, listed as hydroxyquinone), “inhibitory effect”.

For the molecule `CN(C)CCOC(c1ccccc1)c1ccccc1.Cl` [dipheniramine hydrochloride], the “inhibition” value in test [1] (setting [3]) is recorded as “none of these inhibitors prevented Lzm-S's vasodilatory response”. Still for that read-out and setting: then `CCN(CC)C(=S)S` [DECTA, diethyldithiocarbamic acid], with “neither DECTA (10^−2 mol/L), deferoxamine methanesulfonate salt (10^−2 mol/L), nor the reducing agents N-acetylcysteine (10^−3 mol/L), ascorbic acid (10^−4 mol/L), and reduced-glutathione (10^−3 mol/L) were found to inhibit Lzm-S-induced vasodilation”. Take `N[C@@H](CCC(=O)N[C@@H](CS)C(=O)NCC(=O)O)C(=O)O` [reduced-glutathione, reduced glutathione]: in test [1] (setting [3]), the “inhibition” value was “neither DECTA (10^−2 mol/L), deferoxamine methanesulfonate salt (10^−2 mol/L), nor the reducing agents N-acetylcysteine (10^−3 mol/L), ascorbic acid (10^−4 mol/L), and reduced-glutathione (10^−3 mol/L) were found to inhibit Lzm-S-induced vasodilation”.

Consider `CC(=O)N[C@H]1[C@H](O[C@H]2[C@H](O)[C@@H](NC(C)=O)C(O)O[C@@H]2CO)O[C@H](CO)[C@@H](O)[C@@H]1O` (some centres unmarked) [chitobiose, N,N′-diacetylchitobiose], for which, in test [1] (setting [3]), the “inhibition” value is listed as “did not block Lzm-S's vasodilatory response”. On the same count and under the same terms, then `[Cl-].[K+]` [KCl], with “none of these inhibitors prevented Lzm-S's vasodilatory response”; and `O=C(O)CCC/C=C\C/C=C\C/C=C\C/C=C\CCCCCO` [20-hydroxyeicosatetraenoic acid], with “none of these inhibitors prevented Lzm-S's vasodilatory response”; and `CC(=O)N[C@@H](CS)C(=O)O` [N-acetylcysteine], with “neither DECTA (10^−2 mol/L), deferoxamine methanesulfonate salt (10^−2 mol/L), nor the reducing agents N-acetylcysteine (10^−3 mol/L), ascorbic acid (10^−4 mol/L), and reduced-glutathione (10^−3 mol/L) were found to inhibit Lzm-S-induced vasodilation”.

In the case of `OC[C@@H](O)[C@@H](O)[C@H](O)[C@H](O)CO` [mannitol], the “blockade of Lzm-S-induced vasodilation” value in test [1] came out at 60%. Moreover, in test [1] (setting [3]), the “inhibition” value is listed as “inhibited the vasodilatory effect of lysozyme; also recorded: inhibitory effect”. As for `Nc1ccncc1` [4-aminopyridine], in test [1] (setting [3]), the “inhibition” value is recorded as “none of these inhibitors prevented Lzm-S's vasodilatory response”. Same read-out and setting: then `O=C1C(Nc2ccccc2)=CC(=O)c2ncccc21` [LY 83583, 6-anilino-5,8-quinolinequinone], with “prevented lysozyme induced vasdodilation; also recorded: found to inhibit Lzm-S's effect”. The same measure, in the same setting: under `O=C1O[C@H]([C@@H](O)CO)C(O)=C1O` [ascorbic acid] stands “neither DECTA (10^−2 mol/L), deferoxamine methanesulfonate salt (10^−2 mol/L), nor the reducing agents N-acetylcysteine (10^−3 mol/L), ascorbic acid (10^−4 mol/L), and reduced-glutathione (10^−3 mol/L) were found to inhibit Lzm-S-induced vasodilation”; under `O=c1onc2cnc3ccccc3n12` [ODQ, 1H-[1,2,4]oxadiazolo[4,3-a]quinoxalin-1-one], “prevented lysozyme induced vasdodilation; also recorded: found to inhibit Lzm-S's effect”; under “iberiotoxin: used for inhibition of potassium channels (QFTDVDCSVSKECWSVCKDLFGVDRGKCMGKKCRCYQ; Iberiotoxin; UniProt P24663 1-37, looked up)”, “none of these inhibitors prevented Lzm-S's vasodilatory response”. On to “guanosine 3′,5′-cyclic monophosphorothioate, β-phenyl-1,N^2-etheno-8-bromo-Rp-isomer, sodium salt [PKG inhibitor]”, for which the “inhibition” value in test [1] (pretreatment with the agent, human Lzm-S 6.7×10^−7 mol/L, phenylephrine contracted ring, listed as protein kinase G inhibitor, sodium salt) is listed as “prevented lysozyme induced vasdodilation”; in test [1] (pretreatment with the agent, human Lzm-S 6.7×10^−7 mol/L, phenylephrine contracted ring, sodium salt), “found to inhibit Lzm-S's effect”. For the molecule charybdotoxin, the “inhibition” value in test [1] (setting [3]) is on record as “none of these inhibitors prevented Lzm-S's vasodilatory response”. Turning to `CC[N+](CC)(CC)CC` [tetraethylammonium], in test [1], the “inhibition” value is listed as “none of these inhibitors prevented Lzm-S's vasodilatory response”. In the case of `Nc1ncnc2c1ncn2C1CCCO1` (centres unmarked) [SQ 22, 536], in test [1] (setting [3]), the “inhibition” value is recorded as “none of these inhibitors prevented Lzm-S's vasodilatory response”. Take `CN(C)c1ccc2nc3ccc(=[N+](C)C)cc-3sc2c1` [methylene blue]: the “inhibition” value in test [1] (setting [3]) was “inhibited the effect of lysozyme; also recorded: prevented lysozyme induced vasdodilation; also recorded: found to inhibit Lzm-S's effect”. For `OO` [H2O2, hydrogen peroxide], the “effect of H2O2 on force” value is “progressive vasorelaxation over time” in test [2] (10^−4 mol/L); “an initial increase in force that was followed by vasorelaxation; also recorded: vasoconstriction that was rapidly followed by vasodilation” in test [2] (higher concentrations, 10^−3 to 10^−1 mol/L); “vasorelaxation was produced” in test [2] (lower concentrations, FIG. 8). Besides, the “effect of H2O2 on precontracted force” value in test [2] (10^−5 mol/L) is “minimal effect”.

As for deferoxamine methanesulfonate salt, the “inhibition” value in test [1] (setting [3]) was “neither DECTA (10^−2 mol/L), deferoxamine methanesulfonate salt (10^−2 mol/L), nor the reducing agents N-acetylcysteine (10^−3 mol/L), ascorbic acid (10^−4 mol/L), and reduced-glutathione (10^−3 mol/L) were found to inhibit Lzm-S-induced vasodilation”. `CC(=O)N[C@H]1[C@H](O[C@H]2[C@H](O)[C@@H](NC(C)=O)C(O)O[C@@H]2CO)O[C@H](CO)[C@@H](O[C@@H]2O[C@H](CO)[C@@H](O)[C@H](O)[C@H]2NC(C)=O)[C@@H]1O` (some centres unmarked) [chitotriose, N,N′,N″-triacetylchitotriose]: in test [1] (setting [3]), the “inhibition” value is “did not block Lzm-S's vasodilatory response”. In the case of `CNC[C@H](O)c1cccc(O)c1` [phenylephrine], the phenylephrine response is reported as 7.1±0.5 grams in test [2] (endothelial denuded preparation) and 6.7±0.7 grams in test [2] (endothelial intact preparation). The molecule further registered a phenylephrine contraction alone in test [2] (ethanol treated control group, baseline before ethanol) of 8.2±2.6 grams. Besides, the “mean increase in contraction from resting force with phenylephrine” value in test [2] (indomethacin treated group) worked out at 7.5±1.4 grams. Also, in test [2] (non-indomethacin time control group), the “mean increase in force from resting tension with phenylephrine” value came to 6.9±2.7 grams. In addition, the “mean increase in resting force caused by phenylephrine” value in test [2] (phenylephrine 10^−5 mol/L, L-NMMA treated group) is recorded as 6.2±2.4 grams. Further, the “mean increase in contraction from resting force caused by phenylephrine” value in test [2] (phenylephrine 10^−5 mol/L, non-L-NMMA treated group) was determined as 7.1±2.1 grams. Take `CC(C)NCC(O)COc1cccc2ccccc12` (centres unmarked) [propranolol]: the “inhibition” value in test [1] (setting [3]) is listed as “none of these inhibitors prevented Lzm-S's vasodilatory response”. Still for that read-out and setting: then `CN1[C@@H]2CC[C@H]1C[C@@H](OC(=O)C(CO)c1ccccc1)C2` (some centres unmarked) [atropine], with “none of these inhibitors prevented Lzm-S's vasodilatory response”.
